According to patent US4877779A, “2-aminomethylalkynylalkyl-1,3-dithiane derivatives” (priority 1988, dated 1989):
Structures can show the parent of a compound that is named as a salt.

target: T1, calcium channel (guinea-pig isolated ileal longitudinal smooth muscle) (Cavia porcellus, UniProt O35505); assay: Calcium Channel Antagonist Activity in Guinea-Pig Isolated Ileal Smooth Muscle; format: cell-based; settings: Kb = concentration producing a two-fold dextral shift in the control CaCl2 concentration-response curve; KCl (80 mM) depolarized ileal smooth muscle; read-out: Calcium antagonist Kb
T1 construct: The longitudinal smooth muscle is carefully separated from the underlying circular muscle layer; from tissue; host or cells: guinea-pig ileal longitudinal smooth muscle
From the text: Calcium Channel Antagonist Activity in Guinea-Pig Isolated Ileal Smooth Muscle.
Male albino guinea-pigs are sacrificed by stunning and exsanguination. The abdominal cavity is opened and the small intestine is removed, with about 10 cm of the terminal ileum being discarded. The tissue is placed in a dish containing Tyrode's solution (composition, mM: […]; KCl 2.68; NaHCO3 11.90; NaH2 PO4 0.36; MgCl2 0.98; CaCl2 1.77; dextrose 5.55), and cut into three to four segments. A glass rod (6 mm diameter) is carefully inserted into the lumen of each segment, and excess connective tissue or fat is removed. The longitudinal smooth muscle is carefully separated from the underlying circular muscle layer by gently stroking a moist cotton swab on a tangent to shallow, longitudinal incisions made parallel to the mesenteric attachment. Using gentle traction, and taking care to keep the segment moist at all times, the preparation is stripped from the remaining length of the ileal segment (Paton & Zar, J. Physiol. 194, 13; 1968).
Each preparation is suspended in a 10 mL jacketed glass tissue bath containing Tyrode's solution maintained at 37° C. and gassed with 5% CO2 in O2. The preparation is attached by silk thread to a force-displacement transducer. […] The initial resting tension is adjusted to 0.5 g and the preparation equilibrated for 55 minutes prior to experimentation. At the end of this period, the bathing solution is replaced with Ca^2+ -free Tyrode's solution. This solution is prepared by omitting CaCl2. The preparation is washed four times in Ca^2+ -free Tyrode 's to remove any Ca^2+ remaining in the bath, and allowed to equilibrate for a further 20 minutes.
Concentration-response curves to CaCl2 are obtained using the following procedure. Preparations are exposed to a depolarizing concentration of KCl (80 mM) for 6 minutes. At the end of this period CaCl2 is added to the bath cumulatively in the concentration range 0.2-8.0 mM. Successive additions of each Ca^2+ concentration are carried out only when the previous response has reached a plateau. When the maximum response has been attained the bath is again washed (five times) with Ca^2+ -free buffer, and the preparation re-equilibrated for approximately 15 minutes. A second Ca^2+ concentration-response curve is then obtained in the same manner. This second curve serves as control for that tissue.
Further curves are obtained in the presence of increasing concentrations of the test drugs. Where appropriate, the test drug is added to the bath immediately following addition of KCl, and 6 minutes later the concentration-response curve to Ca^2+ is obtained. Each test preparation is exposed to three different concentrations of a test drug.
For each ileal preparation, the control EC50 for Ca^2+ (the concentration producing 50% of the maximum response) is determined from the control concentration-response curve. Calcium blocking activity is defined as a Kb value (the concentration producing a two-fold dextral shift in the control curve), calculated from EC50 ratios in the absence and presence of test drugs.

T1 sequence (O35505 whole entry): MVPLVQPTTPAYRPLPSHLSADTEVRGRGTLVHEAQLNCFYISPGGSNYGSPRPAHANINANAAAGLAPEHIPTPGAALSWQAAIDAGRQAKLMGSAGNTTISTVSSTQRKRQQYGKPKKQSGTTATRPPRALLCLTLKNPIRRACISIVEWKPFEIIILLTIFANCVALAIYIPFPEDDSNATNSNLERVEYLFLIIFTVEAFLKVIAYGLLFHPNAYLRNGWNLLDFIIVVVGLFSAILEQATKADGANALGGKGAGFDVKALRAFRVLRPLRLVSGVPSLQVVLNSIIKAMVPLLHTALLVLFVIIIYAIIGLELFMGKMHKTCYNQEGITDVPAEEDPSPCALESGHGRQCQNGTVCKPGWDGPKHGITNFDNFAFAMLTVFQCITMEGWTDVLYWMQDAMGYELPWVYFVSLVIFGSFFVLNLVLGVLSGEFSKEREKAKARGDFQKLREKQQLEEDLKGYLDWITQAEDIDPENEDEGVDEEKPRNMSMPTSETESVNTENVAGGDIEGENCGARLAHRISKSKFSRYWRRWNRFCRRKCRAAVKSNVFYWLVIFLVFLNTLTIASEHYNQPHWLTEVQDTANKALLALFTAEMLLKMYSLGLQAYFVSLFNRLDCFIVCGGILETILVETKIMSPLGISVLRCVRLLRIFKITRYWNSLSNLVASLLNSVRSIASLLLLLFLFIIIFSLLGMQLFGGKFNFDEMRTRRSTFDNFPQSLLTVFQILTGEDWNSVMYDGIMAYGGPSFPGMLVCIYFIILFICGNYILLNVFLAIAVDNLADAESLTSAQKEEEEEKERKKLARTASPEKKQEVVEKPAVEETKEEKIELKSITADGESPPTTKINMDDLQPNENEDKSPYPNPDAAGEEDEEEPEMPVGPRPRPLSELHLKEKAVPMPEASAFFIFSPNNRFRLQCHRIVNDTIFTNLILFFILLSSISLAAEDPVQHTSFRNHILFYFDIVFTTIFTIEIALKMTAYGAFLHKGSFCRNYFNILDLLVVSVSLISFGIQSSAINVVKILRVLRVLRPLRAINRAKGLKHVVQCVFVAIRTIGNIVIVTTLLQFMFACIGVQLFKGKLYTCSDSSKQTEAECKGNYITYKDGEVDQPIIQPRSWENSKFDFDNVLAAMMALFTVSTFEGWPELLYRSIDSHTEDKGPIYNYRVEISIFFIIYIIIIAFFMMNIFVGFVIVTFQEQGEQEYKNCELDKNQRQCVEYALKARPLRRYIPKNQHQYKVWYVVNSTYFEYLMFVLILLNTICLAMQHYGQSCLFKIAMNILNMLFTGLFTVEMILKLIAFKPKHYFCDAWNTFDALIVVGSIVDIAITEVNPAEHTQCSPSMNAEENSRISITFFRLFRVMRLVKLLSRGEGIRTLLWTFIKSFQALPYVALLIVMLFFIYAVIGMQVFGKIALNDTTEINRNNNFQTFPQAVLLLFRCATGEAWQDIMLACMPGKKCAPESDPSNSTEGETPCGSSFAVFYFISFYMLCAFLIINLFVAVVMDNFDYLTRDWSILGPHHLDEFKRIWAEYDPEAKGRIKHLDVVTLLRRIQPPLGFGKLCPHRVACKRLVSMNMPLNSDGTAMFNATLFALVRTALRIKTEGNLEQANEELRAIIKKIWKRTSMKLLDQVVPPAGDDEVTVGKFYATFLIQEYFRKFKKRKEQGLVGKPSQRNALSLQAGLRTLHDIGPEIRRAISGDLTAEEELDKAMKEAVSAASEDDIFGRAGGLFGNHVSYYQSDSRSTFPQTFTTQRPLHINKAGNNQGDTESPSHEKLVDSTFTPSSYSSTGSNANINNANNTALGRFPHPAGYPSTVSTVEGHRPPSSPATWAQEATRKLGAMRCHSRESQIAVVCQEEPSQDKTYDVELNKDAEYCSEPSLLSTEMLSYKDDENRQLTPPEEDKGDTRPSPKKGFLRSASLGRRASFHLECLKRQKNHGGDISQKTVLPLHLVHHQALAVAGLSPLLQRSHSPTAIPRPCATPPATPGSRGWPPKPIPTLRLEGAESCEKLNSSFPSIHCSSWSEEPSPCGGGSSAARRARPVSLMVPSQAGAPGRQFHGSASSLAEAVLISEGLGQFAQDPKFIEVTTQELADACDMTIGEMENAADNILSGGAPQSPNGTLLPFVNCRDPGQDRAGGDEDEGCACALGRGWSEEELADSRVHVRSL

| Compound | Kb [nM] |
| --- | --- |
| CCN(CC)CC#CCCC1(C(c2ccccc2)c2ccccc2)SCCCS1 [2-(5-Diethylaminopent-3-ynyl)-2-benzhydryl-1,3-dithiane Oxalate Hydrate] | 500 |
| CCN(C)CC#CCCC1(C2(O)c3ccccc3Oc3ccccc32)SCCCS1 [2-(5-Ethylmethylaminopent-3-ynyl)-2-(9-hydroxy-9H-xanthen-9-yl)-1,3-dithiane] | 1510 ± 530 |
| C(#CCN1CCCC1)CCC1SCCCS1 [2-(5-Pyrrolidinylpent-3-ynyl)-1,3-dithiane Oxalate] | > 10000 |
| CN(C)CC#CCCC1(C2(O)c3ccccc3Oc3ccccc32)SCCCS1 [2-(5-Dimethylaminopent-3-ynyl)-2-(9-hydroxy-9H-xanthen-9-yl)-1,3-dithiane] | 1150 ± 200 |
| CCN(CC)CC#CCCC1(c2ccccc2)SCCCS1 [2-(5-Diethylaminopent-3-ynyl)-2-phenyl-1,3-dithiane Oxalate] | 900 ± 300 |
| CCN(CC)CC#CCCC1(C(O)(c2ccccc2)c2ccccc2)SCCCS1 [2-(5-Diethylaminopent-3-ynyl)-2-(α-hydroxy-α-phenylbenzyl)-1,3-dithiane Oxalate] | 980 ± 160 |
| CN(CC#CCCC1(C(O)(c2ccccc2)c2ccccc2)SCCCS1)Cc1ccccc1 [2-[5-(Benzylmethylaminopent-3-ynyl]-2-(α-hydroxy-α-phenylbenzyl)-1,3-dithiane Oxalate Hemihydrate] | 3170 ± 760 |
| CCN(CC)CC#CCCC1(C(O)(c2ccccc2)C2CCCC2)SCCCS1 (stereo not drawn) [2-(5-Diethylaminopent-3-ynyl)-2-(α-cyclopentyl-α-hydroxybenzyl-1,3-dithiane Oxalate] | 500 |
| CCN(CC)CC#CCCC1(Cc2ccccc2)SCCCS1 [2-(5-Diethylaminopent-3-ynyl)-2-benzyl-1,3-dithiane Oxalate] | 1960 ± 400 |
| CN(CC#CCCC1(C(O)(c2ccccc2)c2ccccc2)SCCCS1)CCc1ccccc1 [2-[5-(2-Phenylethyl)methylaminopent-3-ynyl]-2-(α-hydroxy-α-phenylbenzyl)-1,3-dithiane Oxalate Hemihydrate] | 2650 ± 1210 |
| CN(CC#CCCCC1SCCCS1)Cc1ccccc1 [2-(6-Benzylmethylaminohex-4-ynyl)-1,3-dithiane Oxalate] | 4450 ± 160 |
| CN(CC#CCCC1(c2ccccc2)SCCCS1)CCc1ccccc1 [2-[5-(2-Phenylethyl)methylaminopent-3-ynyl]-2-phenyl-1,3-dithiane Oxalate] | 1740 ± 1080 |
| CN(C)CC#CCCC1(C2(O)c3ccccc3Sc3ccccc32)SCCCS1 [2-(5-Dimethylaminopent-3-ynyl)-2-(9-hydroxy-9H-thioxanthen-9-yl)-1,3-dithiane] | 680 ± 130 |
| OC1(C2(CCC#CCN3CCCCC3)SCCCS2)c2ccccc2Sc2ccc(Cl)cc21 (stereo not shown) [2-(5-Piperidinylpent-3-ynyl)-2-(2-chloro-9-hydroxy-9H-thioxanthen-9-yl)-1,3-dithiane] | 6090 ± 1560 |
| CCN(CC)CC#CCCC1(C2(O)CCOc3ccccc32)SCCCS1 (stereo not shown) [2(5-Diethylaminopent-3-ynyl)-2-(4-hydroxy-4H-chromanyl)-1,3-dithiane] | 1940 ± 210 |
| CN(CC#CCCC1SCCCS1)CCCCc1ccccc1 [2-[5-(4-Phenylbutyl)methylaminopent-3-ynyl]-1,3-dithiane Oxalate] | 3430 ± 830 |
| CCN(CC)CC#CCCCC1(C2(O)c3ccccc3Oc3ccccc32)SCCCS1 [2-(6-Diethylaminohex-4-ynyl)-2-(9-hydroxy-9H-xanthen-9-yl)-1,3-dithiane] | 170 ± 20 |
| CCN(CC)CC#CCCC1(C2(O)CCCc3ccccc32)SCCCS1 (stereo not shown) [2-(5-Diethylaminopent-3-ynyl)-2-(1-hydroxy-1,2,3,4-tetrahydro-1-naphthyl)-1,3-dithiane Hemioxalate] | 830 ± 20 |
| CCN(C)CC#CCCC1SCCCS1 [2-(5-Ethylmethylaminopent-3-ynyl)-1,3-dithiane Oxalate] | > 10000 |
| CN(C)CC#CCCC1(C2(O)c3ccccc3Sc3ccc(Cl)cc32)SCCCS1 (stereo not shown) [2-(5-Dimethylaminopent-3-ynyl)-2-(2-chloro-9-hydroxy-9H-thioxanthen-9-yl)-1,3-dithiane] | 2330 ± 180 |

| Compound | Kb [nM] |
| --- | --- |
| CN(CC#CCCC(O)(c1ccccc1)C1SCCCS1)CCc1ccccc1 (stereo not shown) [2-[6-(2-phenylethyl)methylamino-1-hydroxy-1-phenyl-hex-4-ynyl]-1,3-dithiane oxalate hemihydrate] | 2250 ± 530 |
| CCN(C)CC#CCCC1(C2(O)c3ccccc3Sc3ccccc32)SCCCS1 [2-(5-Ethylmethylaminopent-3-ynyl)-2-(9-hydroxy-9H-thioxanthen-9-yl)-1,3-dithiane] | 570 ± 120 |
| C(#CCN1CCCCC1)CCC1SCCCS1 [2-(5-Piperidinylpent-3-ynyl)-1,3-dithiane Oxalate] | > 10000 |
| CN(CC#CCCC1SCCCS1)CCCc1ccccc1 [2-[5-(3-Phenylpropyl)methylaminopent-3-ynyl]-1,3-dithiane Oxalate] | 2980 ± 590 |
| CCN(CC)CC#CCCC1SCCCS1 [2-(5-Diethylaminopent-3-ynyl)-1,3-dithiane Oxalate] | > 10000 |
| CN(CC#CCCC1(C2(O)c3ccccc3Oc3ccccc32)SCCCS1)CCCc1ccccc1 [2-[5-(3-Phenylpropyl)methylaminopent-3-ynyl]-2-(9-hydroxy-9H-xanthen-9-yl)-1,3-dithiane] | 3090 ± 990 |
| CCN(CC)CC#CCCC1(C(C)(O)c2ccccc2)SCCCS1 (stereo not drawn) [2-(5-Diethylaminopent-3-ynyl)-2-(α-hydroxy-α-methylbenzyl)-1,3-dithiane] | 2510 ± 400 |
| CN(CC#CCCC1(C(O)(c2ccccc2)C2CCCCC2)SCCCS1)CCc1ccccc1 (stereo not drawn) [2-[5-(2-Phenylethyl)methylaminopent-3-ynyl]-2-(α-cyclohexyl-α-hydroxybenzyl)-1,3-dithiane Oxalate] | 3750 ± 1250 |
| OCCN1CCN(CC#CCCC2SCCCS2)CC1 [2-[5-[4-(2-Hydroxyethyl)piperazinyl]pent-3-ynyl]-1,3-dithiane Dioxalate] | > 10000 |
| OC1(C2(CCC#CCN3CCCCC3)SCCCS2)c2ccccc2-c2ccccc21 [2-(5-Piperidinylpent-3-ynyl)-2-(9-hydroxy-9H-fluoren-9-yl)-1,3-dithiane] | 1000 ± 70 |
| CN(CC#CCCC1SCCCS1)Cc1cccc2ccccc12 [2-[5-(1-Naphthylmethyl)methylaminopent-3-ynyl]-1,3-dithiane Oxalate] | > 10000 |
| CN(CC#CCCC1SCCCS1)Cc1ccccc1 [2-[5-(Benzylmethylaminopent-3-ynyl]-1,3-dithiane Oxalate] | 8020 ± 2740 |
| CN(CC#CCCC1(C2(O)c3ccccc3Sc3ccc(Cl)cc32)SCCCS1)CCCc1ccccc1 (stereo not shown) [2-[5-(3Phenylpropyl)methylaminopent-3-ynyl)-2-(2-chloro-9-hydroxy-9H-thioxanthen-9-yl)-1,3-dithiane Hemioxalate] | > 7000 |
| CCN(CC)CC#CCC1(c2ccccc2)SCCCS1 [2-(4-diethylaminobut-2-ynyl)-2-phenyl-1,3-dithiane oxalate] | 4270 ± 430 |
| CCN(C)CC#CCCC1(C2(O)c3ccccc3Sc3ccc(Cl)cc32)SCCCS1 (stereo not shown) [2-(5-Ethylmethylaminopent-3-ynyl)-2-(2-chloro-9-hydroxy-9H-thioxanthen-9-yl)-1,3-dithiane] | 2530 ± 1030 |
| CCN(CC)CC#CCCCC1(C2(O)c3ccccc3-c3ccccc32)SCCCS1 [2-(6-Diethylaminohex-4-ynyl)-2-(9-hydroxy-9H-fluoren-9-yl)-1,3-dithiane] | 810 ± 220 |
| CN1CCN(CC#CCCC2(C3(O)c4ccccc4Oc4ccccc43)SCCCS2)CC1 [2-[5-(4-Methylpiperazinyl)pent-3-ynyl]-2-(9-hydroxy-9H-xanthen-9-yl)-1,3-dithiane Dioxalate] | 488 ± 30 |
| OC1(C2(CCC#CCN3CCCCC3)SCCCS2)c2ccccc2Sc2ccccc21 [2-(5-Piperidinylpent-3-ynyl)-2-(9-hydroxy-9H-thioxanthen-9-yl)-1,3-dithiane] | 3660 ± 2040 |
| CCN(CC)CC#CCCC1(C2(O)c3ccccc3C=Cc3ccccc32)SCCCS1 [2-(5-Diethylaminopent-3-ynyl)-2-(5-hydroxy-5H-dibenzo[a,d]cyclohepten-5-yl)-1,3-dithiane Oxalate] | 300 |
| CCCN(CC#CCCCC1(C2(O)c3ccccc3-c3ccccc32)SCCCS1)CCC [2-(6-Dipropylaminohex-4-ynyl)-2-(9-hydroxy-9H-fluoren-9-yl)-1,3-dithiane] | 560 ± 80 |
